Laboratory results taken from PubChem BioAssay (NCI).
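Results reflect a 48-hour exposure of cells in 96-well plates to compound at five concentrations. GI50 = concentration required for 50% inhibition of growth. TGI is the concentration that stops growth completely.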

Tests used:
Test in all cases: inhibition of tumour cell growth, NCI panel, 48 h
[1] = system: CCRF-CEM leukemia
[2] = system: COLO 205 colon
[3] = system: HCC-2998 colon
[4] = system: HOP-62 NSCLC
[5] = system: KM12 colon
[6] = system: OVCAR-8 ovarian
[7] = system: RPMI-8226 leukemia
[8] = system: SF-268 CNS
[9] = system: SK-MEL-28 melanoma
[10] = system: SK-MEL-5 melanoma

| Structure (SMILES) | TGI [1] | TGI [2] | TGI [3] | TGI [4] | TGI [5] | TGI [6] | TGI [7] | TGI [8] | TGI [9] | TGI [10] | GI50 [1] | GI50 [2] | GI50 [3] | GI50 [4] | GI50 [5] | GI50 [6] | GI50 [7] | GI50 [8] | GI50 [9] | GI50 [10] |
| --- | --- | --- | --- | --- | --- | --- | --- | --- | --- | --- | --- | --- | --- | --- | --- | --- | --- | --- | --- | --- |
| O=C(/C=C/c1ccccc1)CC1OC(=O)c2ccccc21 (stereo not given) | > 100 µM | > 100 µM | > 100 µM | > 100 µM | > 100 µM | > 100 µM | 82.5 µM | > 100 µM | > 100 µM | > 100 µM |  |  |  |  |  |  |  |  |  |  |
| Clc1ccc(Cc2nc3ccccc3s2)c(Cl)c1 | 22.7 µM | 31.5 µM | 33.4 µM | 32.9 µM | 34.9 µM | 38.4 µM | 48.5 µM | 30.5 µM | 33.1 µM | 32.6 µM |  |  |  |  |  |  |  |  |  |  |
| CCCCC1CC(c2cccc([N+](=O)[O-])c2)=NO1 (stereo not given) | > 100 µM | > 100 µM | > 100 µM | > 100 µM | > 100 µM | > 100 µM | > 100 µM | > 100 µM | > 100 µM | > 100 µM |  |  |  |  |  |  |  |  |  |  |
| COc1ccc(Nc2ncc(Br)c(NCCCNC(=O)C3CCC3)n2)cc1 | 98.1 µM | 30.8 µM | 58.1 µM | 44.8 µM | > 100 µM | > 100 µM | 42.1 µM | 41.6 µM | > 100 µM | 35.1 µM | 4.49 µM | 10.6 µM | 21.7 µM | 4.77 µM | 8.06 µM | 21.1 µM | 14 µM | 4.78 µM | 33.4 µM | 13 µM |
| CC[N+](C)(CC)CCC(O)(c1ccccc1)c1ccccc1 | > 100 µM | > 100 µM | > 100 µM | > 100 µM | > 100 µM | > 100 µM | > 100 µM | > 100 µM | > 100 µM | > 100 µM |  |  |  |  |  |  |  |  |  |  |
| O=C(c1ccc(Cl)cc1)c1ccc(OCCCCCCCCCCOc2ccc(C(=O)c3ccc(Cl)cc3)cc2)cc1 | > 100 µM | > 100 µM | > 100 µM | > 100 µM | > 100 µM | > 100 µM | > 100 µM | > 100 µM | > 100 µM | > 100 µM |  |  |  |  |  |  |  |  |  |  |
| CS(=O)(=O)OCCN1CCN(C(=O)c2cccc3c(Nc4ccc(S(=O)(=O)N=C(N)N)cc4)c4ccccc4nc23)CC1 | > 100 µM | > 100 µM | > 100 µM | > 100 µM | > 100 µM | > 100 µM | > 100 µM | > 100 µM | > 100 µM | > 100 µM |  |  |  |  |  |  |  |  |  |  |
| O=C(c1ccccc1)C1CCCCN1C(=O)c1ccccc1 (stereo not given) | > 100 µM | > 100 µM | > 100 µM | > 100 µM | > 100 µM | > 100 µM | > 100 µM | > 100 µM | > 100 µM | > 100 µM |  |  |  |  |  |  |  |  |  |  |
| CCOC(=O)C1(Br)C(c2ccccc2)NC(=O)NC1(C)Br (stereo not given) | 99.8 µM | > 100 µM | > 100 µM | > 100 µM | > 100 µM | > 100 µM | > 88.9 µM | > 100 µM | > 100 µM | > 100 µM |  |  |  |  |  |  |  |  |  |  |
| OC1c2ccccc2C2(O)C1C(c1ccccc1)C(c1ccccc1)C2(O)c1ccccc1 (stereo not given) | > 100 µM | 30.7 µM | 28.6 µM | 28.2 µM | 25.3 µM | 43.5 µM | 65.1 µM | 68.8 µM | 25.7 µM | 21.7 µM |  |  |  |  |  |  |  |  |  |  |
